Test results reported in patent US20090232838A1, “Ligands of melanocortin receptors” (priority 2005, published 2009).

Tests used:
[1] = target: T1, hMC3-R (Homo sapiens, UniProt P41968); test: cyclic AMP bioassay, hMC3-R; type: cell-based; conditions: Table 3A; cAMP in CHO-K1 cells, antagonist potency by Schild analysis; read-out: Kb hMC3-R
T1 construct: expressed in transfected cells; host or cells: CHO-K1
Protocol: Intracellular cyclic AMP (cAMP) levels were determined by an electrochemiluminescence (ECL) assay (Meso Scale Discovery®, Gaithersburg, Md.; referred to hereinafter as MSD). […] Transgenic CHO-K1 cells stably expressing hMC receptor subtypes 1, 3, 4 or 5 were dispensed at a density of approximately 7,000 cells/well in 384-well Multi-Arrays plates (MSD) containing integrated carbon electrodes and coated with anti-CAMP antibody. Increasing concentrations of the test compounds were added and the cells were incubated for approximately 40 minutes at approximately 37° C. […] At the end of the second incubation period read buffer (Tris-buffered solution containing an ECL co-reactant and Triton X-100 at ph 7.8) was added and the cAMP levels in the cell lysates were immediately determined by ECL detection with a Sector Imager 6000 Reader® (MSD). Data were analyzed using a computer-assisted non-linear regression analysis (XL fit; IDBS) and reported as either an EC50 value or a Kb value.
The Kb value reflects the potency of an antagonist and is determined by Schild analysis. In brief, concentration-response curves of an agonist are carried out in the presence of increasing concentrations of an antagonist. […] It is calculated by extrapolating the line on a Schild plot to zero on the y-axis.

[2] = target: T2, hMC4-R (Homo sapiens, UniProt P32245); test: cyclic AMP bioassay, hMC4-R; type: cell-based; conditions: Table 3A; cAMP in CHO-K1 cells, antagonist potency by Schild analysis; read-out: Kb hMC4-R
T2 construct: expressed in transfected cells; host or cells: CHO-K1
T2 sequence (P32245 whole entry): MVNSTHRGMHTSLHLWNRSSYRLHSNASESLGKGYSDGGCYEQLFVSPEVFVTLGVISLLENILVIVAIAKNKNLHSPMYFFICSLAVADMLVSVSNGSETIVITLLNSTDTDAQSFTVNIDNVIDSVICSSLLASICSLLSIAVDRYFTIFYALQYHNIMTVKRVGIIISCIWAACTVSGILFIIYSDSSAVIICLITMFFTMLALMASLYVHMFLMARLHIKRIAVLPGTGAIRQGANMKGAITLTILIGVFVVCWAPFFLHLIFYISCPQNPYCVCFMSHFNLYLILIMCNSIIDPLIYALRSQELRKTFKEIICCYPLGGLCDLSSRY

T1 sequence (P41968 whole entry): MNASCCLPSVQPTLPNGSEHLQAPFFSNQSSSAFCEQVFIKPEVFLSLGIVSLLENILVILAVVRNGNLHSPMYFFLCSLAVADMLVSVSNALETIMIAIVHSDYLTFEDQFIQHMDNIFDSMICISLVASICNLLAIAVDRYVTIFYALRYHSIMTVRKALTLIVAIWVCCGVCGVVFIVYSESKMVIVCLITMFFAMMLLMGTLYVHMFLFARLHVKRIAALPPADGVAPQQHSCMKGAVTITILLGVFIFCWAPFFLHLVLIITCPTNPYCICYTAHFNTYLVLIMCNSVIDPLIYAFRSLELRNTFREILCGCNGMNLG

Row | SMILES | Kb [1] [nM] | Kb [2] [nM]
1 | CCCC[C@H](NC(C)=O)C(=O)N[C@H]1CC(=O)NCCCC[C@@H](C(=O)N2CCC[C@H]2C(=O)N2CCC[C@H]2C(=O)N[C@@H](CCCCN)C(=O)N[C@@H](CC(=O)O)C(=O)N[C@@H](Cc2ccc(O)cc2)C(=O)NCC(=O)N[C@@H](CCCNC(=N)N)C(=O)N[C@@H](CCCCN)C(=O)N[C@@H](CCCCN)C(=O)N[C@@H](CCCNC(=N)N)C(=O)N[C@@H](CCCNC(=N)N)C(=O)N[C@@H](CCC(N)=O)C(=O)N[C@@H](CCCNC(=N)N)C(=O)N[C@@H](CCCNC(=N)N)C(=O)N[C@@H](CCCNC(=N)N)C(N)=O)NC(=O)[C@H](Cc2c[nH]c3ccccc23)NC(=O)[C@H](CCCNC(=N)N)NC(=O)[C@@H](Cc2ccc3ccccc3c2)NC(=O)[C@H](Cc2c[nH]cn2)NC1=O | 14.1 | 22.8
2 | CCCC[C@H](NC(C)=O)C(=O)N[C@H]1CC(=O)NCCCC[C@@H](C(=O)NCCC(=O)N[C@@H](Cc2ccc(O)cc2)C(=O)NCC(=O)N[C@@H](CCCNC(=N)N)C(=O)N[C@@H](CCCCN)C(=O)N[C@@H](CCCCN)C(=O)N[C@@H](CCCNC(=N)N)C(=O)N[C@@H](CCCNC(=N)N)C(=O)N[C@@H](CCC(N)=O)C(=O)N[C@@H](CCCNC(=N)N)C(=O)N[C@@H](CCCNC(=N)N)C(=O)N[C@@H](CCCNC(=N)N)C(N)=O)NC(=O)[C@H](Cc2c[nH]c3ccccc23)NC(=O)[C@H](CCCNC(=N)N)NC(=O)[C@@H](Cc2ccc3ccccc3c2)NC(=O)[C@H](Cc2c[nH]cn2)NC1=O | 220 | 4.07
3 | CC(=O)N[C@H]1CSSC[C@@H](C(=O)N2CCC[C@H]2C(=O)N2CCC[C@H]2C(=O)N[C@@H](CCCCN)C(=O)N[C@@H](CC(=O)O)C(=O)N[C@@H](Cc2ccc(O)cc2)C(=O)NCC(=O)N[C@@H](CCCNC(=N)N)C(=O)N[C@@H](CCCCN)C(=O)N[C@@H](CCCCN)C(=O)N[C@@H](CCCNC(=N)N)C(=O)N[C@@H](CCCNC(=N)N)C(=O)N[C@@H](CCC(N)=O)C(=O)N[C@@H](CCCNC(=N)N)C(=O)N[C@@H](CCCNC(=N)N)C(=O)N[C@@H](CCCNC(=N)N)C(N)=O)NC(=O)CNC(=O)[C@H](Cc2c[nH]c3ccccc23)NC(=O)[C@H](CCCNC(=N)N)NC(=O)[C@@H](Cc2ccc3ccccc3c2)NC(=O)[C@H](Cc2c[nH]cn2)NC(=O)[C@H](CCC(=O)O)NC1=O | 233 | 26
4 | CCCC[C@H](N)C(=O)N[C@H]1CC(=O)NCCCC[C@@H](C(=O)NCCC(=O)N[C@@H](Cc2ccc(O)cc2)C(=O)NCC(=O)N[C@@H](CCCNC(=N)N)C(=O)N[C@@H](CCCCN)C(=O)N[C@@H](CCCCN)C(=O)N[C@@H](CCCNC(=N)N)C(=O)N[C@@H](CCCNC(=N)N)C(=O)N[C@@H](CCC(N)=O)C(=O)N[C@@H](CCCNC(=N)N)C(=O)N[C@@H](CCCNC(=N)N)C(=O)N[C@@H](CCCNC(=N)N)C(N)=O)NC(=O)[C@H](Cc2c[nH]c3ccccc23)NC(=O)[C@H](CCCNC(=N)N)NC(=O)[C@@H](Cc2ccc3ccccc3c2)NC(=O)[C@H](Cc2c[nH]cn2)NC1=O | 207 | 18.5
5 | CCCC[C@H](NC(=O)COCCOCCNC(=O)[C@H](CCCNC(=N)N)NC(=O)[C@H](CCCNC(=N)N)NC(=O)[C@H](CCCNC(=N)N)NC(=O)[C@H](CCC(N)=O)NC(=O)[C@H](CCCNC(=N)N)NC(=O)[C@H](CCCNC(=N)N)NC(=O)[C@H](CCCCN)NC(=O)[C@H](CCCCN)NC(=O)[C@H](CCCNC(=N)N)NC(=O)CNC(=O)[C@@H](N)Cc1ccc(O)cc1)C(=O)N[C@H]1CC(=O)NCCCC[C@@H](C(N)=O)NC(=O)[C@H](Cc2c[nH]c3ccccc23)NC(=O)[C@H](CCCNC(=N)N)NC(=O)[C@@H](Cc2ccc3ccccc3c2)NC(=O)[C@H](Cc2c[nH]cn2)NC1=O | 395 | 16.8
